Experimental findings from patent US4547507A, “Benzothiopyranopyridinones” (Roussel Uclaf, priority 1982, dated 1985) are described below.

For experiment [1], the target named is rat striatal dopamine receptor (Rattus norvegicus, UniProt P61169). As to the kind of experiment: Test A: [3H]Spiroperidol displacement from rat striatal dopamine receptor binding sites. Conditions: rat striatal membranes, [3H]spiroperidol 0.19 nM, 37° C., 10 minutes, pH 7.6; read-out: Test A receptor DA IC50. The procedure: Test A--[^3 H Spiroperidol displacement from rat striatal dopamine receptor binding sites
Sequence of rat striatal dopamine receptor (P61169 whole entry): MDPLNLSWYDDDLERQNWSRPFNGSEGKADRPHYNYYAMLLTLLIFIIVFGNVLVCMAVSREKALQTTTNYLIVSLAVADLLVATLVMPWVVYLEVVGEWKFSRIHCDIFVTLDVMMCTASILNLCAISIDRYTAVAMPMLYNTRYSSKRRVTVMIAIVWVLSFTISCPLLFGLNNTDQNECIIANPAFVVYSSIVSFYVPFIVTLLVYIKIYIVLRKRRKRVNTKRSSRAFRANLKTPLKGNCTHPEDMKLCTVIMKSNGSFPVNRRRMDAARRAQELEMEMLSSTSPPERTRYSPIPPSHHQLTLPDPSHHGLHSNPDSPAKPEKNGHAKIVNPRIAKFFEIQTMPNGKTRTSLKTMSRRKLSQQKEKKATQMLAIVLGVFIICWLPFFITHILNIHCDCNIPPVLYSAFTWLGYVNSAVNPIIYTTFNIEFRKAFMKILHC
(a) Radioligand--[phenyl-4-(n)-^3 H]Spiroperido (Amersham International, TRK 570, 21 Ci/mmol was used as a 1 μCi/1 μl solution in ethanol and this solution was diluted to 250 μCi in 1 ml of ethanol to produce a stock solution. This stock solution was diluted 3.2/10,000 in assay buffer and 0.1 ml volumes of this were added to 2 ml binding assays =0.19 nM [^3 H]spiroperidol and =[…]
(b) Assay buffer--The assay buffer was a modified 50 mM Tris HCl buffer with a pH of 7.6 containing the following additions: NaCl-120 mM, KCl-5 mM, MgCl2 -1 mM, CaCl2 -2 mM, Pargyline-10 μM and 1-Ascorbic Acid-0.1%
(c) Membrane preparation--The striata were dissected from male CFHB rats and homogenized in 20 volumes of ice cold 0.32M sucrose with a Teflon/glass homogenizer and the homogenate was centrifuged at 1000 g for 10 minutes. The resulting supernatant was recentrifuged at 30,000 g for 30 minutes and the supernatant was discarded and the pellet was resuspended by homogenization in 30 volumes of ice cold assay buffer.
(d) Non-specific binding--Non-specific binding was accounted for by the inclusion of 1 μM(+)butaclamol in blank binding assays which required a stock solution of 20 μM in distilled water.
(e) Displacing compounds--Solutions were prepared at 20x final assay concentration in distilled water.
(f) Binding assay protocol--1.3 ml assay buffer, 0.5 ml membrane suspension, 0.1 ml distilled H2 O or drug solution and 0.1 ml [^3 H]spiroperidol dilution Binding assays were made up in ice with the [^3 H]spiroperidol being added last and incubated at 37° C. for 10 minutes. The bound ligand was separated by filtration through Whatman GF/C filters under vacuum followed by 2×10 ml rinses of ice cold assay buffer. The filters were dried at 80° C. and counted in 5 ml volumes of ECONOFLUOR (NEN) scintillation cocktail. All binding assays, controls, blanks and each of four displacer concentration were run in triplicate. IC50 values (Test A) were obtained graphically from log dose versus percent inhibition of specific binding plots.

The target in a further experiment is rat cortical α1 receptor. As to the kind of experiment: Test B: [3H]Prazosin displacement from rat cortical α1 receptor binding sites. Conditions: rat cerebral cortex membranes, [3H]prazosin 0.1 nM, 25° C., 30 minutes, pH 7.5. The procedure:
Test B--[^3 H]Pyrazosin displacement from rat cortical α1 receptor binding sites (a) Radioligand--[^3 H]Prazosin (Amersham International, TRK 647, 28 Ci/mmole) was used as a 1 μCi/1 μl solution and this stock solution was diluted 1/18,000 in assay buffer and 0.1 ml volumes of this were added to 2 ml binding assay. =0.1 nM [^3 H]Prazosin and =0.0056 μCi/binding assay (b) Membrane preparation--The cerebral cortices were dissected from male CFHB rats and homogenized in 20 volumes of ice cold 0.32M sucrose using a Teflon/glass homogenizer and the homogenate was centrifuged at 1000 g for 10 minutes. The resulting pellet was discarded and the supernatant was recentrifuged at 30,000 g for 30 minutes. The supernatant was discarded and the pellet was resuspended by homogenization in 50 volumes of 50 mM pH 7.5 Tris HCl buffer (assay buffer). (c) Non-specific binding--Non-specific binding was accounted for by the inclusion of 100 μM 1-noradrenaline in blank binding assays which required a stock solution of 2 mM 1-noradrenaline made up fresh daily in 0.1% 1-ascorbic acid. (d) Displacing compounds--Solutions were prepared at 20x final assay concentration in distilled water. (e) Binding assay protocol--1.3 ml assay buffer, 0.5 ml membrane suspension, 0.1 ml distilled H2 O or drug solution and 0.1 ml [^3 H]pyrazosin dilution Binding assays were made up in ice with the [^3 H]pyrazosin being added last and incubated at 25° C. for 30 minutes. The bound ligand was separated by filtration through Whatman GF/C glass fibre filters under vacuum followed by 2×10 ml rinses of ice cold assay buffer. The filters were dried at 80° C. and counted in 5 ml volumes of ECONOFLUOR (NEN) scintillation cocktail. All binding assays, controls, blanks and each of four displacer concentrations were run in triplicate. IC50 values (Test B) were obtained graphically from log dose versus percent inhibition of specific binding plots.

For a further experiment, the target named is rat cortical α2 receptor. As to the kind of experiment: Test C: [3H]Dihydroergocryptine displacement from rat cortical α2 receptor binding sites. Conditions: rat cortical membranes, [3H]dihydroergocryptine 0.45 nM, 25° C., 45 minutes in the dark; approximately 80% of binding is α2. The procedure: Test C--[^3 H]Dihydroergocryptine displacement from rat cortical α2 *receptor binding sites
(a) Radioligand--[9,10(n)-^3 H]9,10-Dihydroergocryptine (Amersham International, TRK 555, 17.5 Ci/mmole) was used as a 1 μCi/1 μl solution and this stock solution was diluted 1/6250 in assay buffer and 0.1 ml volumes of this were added to 2 ml binding assays. =0.45 nM and =0.016 μCi/binding assay
*In cortical membranes, [^3 H]dihydroergocryptine binds to both α1 and α2 receptor binding sites under the conditions of assay described here, approximately 80% of the binding is associated with α2 receptors.
(§1) (b) Membrane preparation--As for Test B
(c) Non-specific binding--As for Test B
(d) Displacing compounds--As for Test B
(e) Assay protocol--As for Test B with the exception that the binding assays were incubated at 25° C. for 45 minutes in the dark.

Experiment [2] has as its target rat cortical muscarinic receptor. As to the kind of experiment: Test D: [3H]Quinuclidinyl benzylate displacement from rat cortical muscarinic receptor binding sites. Conditions: rat cortical membranes, [3H]quinuclidinyl benzylate 0.31 nM, 25° C., 60 minutes; read-out: Test D MUSC IC50. The procedure: Test D--[^3 H]Quinuclidinyl benzylate displacement from rat cortical muscarinic receptor binding sites
(a) Radioligand--DL-[3-^3 H]Quinuclidinyl benzylate (Amersham International, TRK 506, 12 Ci/mmol) was used as a 1 μCi/1 μl solution and this stock solution was diluted 1/13333 in assay buffer and 0.1 ml volumes of this were added to 2 ml binding assay =0.31 nM and =0.0075 μCi/binding assay
as §1
(c) Non-specific binding--Non-specific binding was accounted for by the inclusion of 100 μM oxotremorine sesquifumarate in blank binding assays and this required a stock solution of 2 mM in distilled H2 O.
(d) Displacement compounds--As for Test B
(e) Assay protocol--As for Test B with the exception that the binding assays were incubated at 25° C. for 60 minutes.

Molecules are shown by their SMILES. Counter-ions that a name gives are not always drawn.

On to `CC(C)CCN1CCc2sc3ccccc3c(=O)c2C1` [Example 15, 1,2,3,4-tetrahydro-2-isopentyl-10H-(1)-benzothiopyrano[3,2-c]pyridin-10-onehydrochloride], for which the IC50 in experiment [1] worked out at 60 nM; on rat cortical α1 receptor, 680 nM; on rat cortical α2 receptor, 170 nM; in experiment [2], 87100 nM.
For `O=c1c2c(sc3ccccc13)CCN(CCCn1c(=O)[nH]c3ccccc31)C2` [Example 36], the IC50 in experiment [1] was 30 nM; at rat cortical α1 receptor, 190 nM; on rat cortical α2 receptor it was 150 nM; in experiment [2] it was 44700 nM.
The like results for `O=c1c2c(sc3ccccc13)CCN(CCc1ccccc1)C2` [Example 32] were, in that order, 230 nM, 170 nM, 210 nM and 46800 nM.
For `O=c1c2c(sc3ccccc13)CCN(CC1CC1)C2` [Example 25, 2-cyclopropylmethyl-1,2,3,4-tetrahydro-10H-(1)-benzothiopyrano[3,2-c]pyridin-10-one] the same measures were 220 nM, 1230 nM, 60 nM and 43000 nM.
`CCCN1CCc2sc3ccccc3c(=O)c2C1` [Example 11, 1,2,3,4-tetrahydro-2-n-propyl-10H-(1)-benzothiopyrano[3,2-c]pyridin-10-one hydrochloride]: the IC50 in experiment [1] is 490 nM; on rat cortical α1 receptor, 1300 nM; at rat cortical α2 receptor, 150 nM; in experiment [2], above 100000 nM.
As to `CCN1CCc2sc3ccccc3c(=O)c2C1` [Example 13, 2-ethyl-1,2,3,4-tetrahydro-10H-(1)-benzothiopyrano[3,2-c]pyridin-10-one hydrochloride], the IC50 in experiment [1] was found to be 1000 nM; at rat cortical α1 receptor, 1500 nM; at rat cortical α2 receptor, 290 nM; in experiment [2] it was 44700 nM.
Regarding `O=C(CN1CCc2sc3ccccc3c(=O)c2C1)c1ccccc1` [Example 33], the IC50 was above 10000 nM in experiment [1], above 10000 nM at rat cortical α1 receptor, above 10000 nM on rat cortical α2 receptor and above 100000 nM in experiment [2].
In the case of `O=c1c2c(sc3ccccc13)CCN(CCO)C2` [Example 35], the IC50 in experiment [1] amounted to 10000 nM; at rat cortical α1 receptor, 10000 nM; on rat cortical α2 receptor, 3300 nM; in experiment [2] it was 71000 nM.
As to `CCCCN1CCc2sc3ccccc3c(=O)c2C1` [Example 14, 2-n-butyl-1,2,3,4-tetrahydro-10H-(1)-benzothiopyrano[3,2-c]pyridin-10-one hydrochloride], the IC50 was 80 nM in experiment [1], 890 nM at rat cortical α1 receptor, 110 nM on rat cortical α2 receptor and 75800 nM in experiment [2].
Regarding `NC(=O)CCN1CCc2sc3ccccc3c(=O)c2C1` [Example 23, 2-(2-carbamoylethyl)-1,2,3,4-tetrahydro-10H-(1)-benzothiopyrano[3,2-c]pyridin-10-one hydrochloride], the IC50 in experiment [1] was 4200 nM; at rat cortical α1 receptor, 5900 nM; on rat cortical α2 receptor, 3000 nM; in experiment [2], above 100000 nM.
Take `O=c1c2c(sc3c1ccc1ccccc13)CCNC2` [Example 8, 1,2,3,4-tetrahydro-12H-naphtho[1',2':6,5]thiopyrano[3,2-c]pyridin-12-one hydrochloride]: the IC50 turned out to be 680 nM in experiment [1], 740 nM on rat cortical α1 receptor, 1000 nM at rat cortical α2 receptor and 8100 nM in experiment [2].
With `N#CCCN1CCc2sc3ccccc3c(=O)c2C1` [Example 22, 2-(2-cyanoethyl)-1,2,3,4-tetrahydro-10H-(1)-benzothiopyrano[3,2-c]pyridin-10-one hydrochloride], the IC50 in experiment [1] was above 10000 nM; at rat cortical α1 receptor it was above 10000 nM; at rat cortical α2 receptor it was above 10000 nM; in experiment [2] it was above 100000 nM.
Take `O=c1c2c(sc3ccccc13)CCN(CC1CCC1)C2` [Example 26, 2-cyclobutylmethyl-1,2,3,4-tetrahydro-10H-(1)-benzothiopyrano[3,2-c]pyridin-10-one]: the IC50 worked out at 60 nM in experiment [1], 690 nM at rat cortical α1 receptor, 50 nM on rat cortical α2 receptor and 50000 nM in experiment [2].
Turning to `COc1ccc2sc3c(c(=O)c2c1)CNCC3` [Example 4, 1,2,3,4-tetrahydro-8-methoxy-10H-(1)-benzothiopyrano[3,2-c]pyridin-10-one hydrochloride], the half-inhibitory concentration (IC50) was above 10000 nM in experiment [1], 7800 nM on rat cortical α1 receptor, 2900 nM on rat cortical α2 receptor and 57500 nM in experiment [2].
On to `CCCCCN1CCc2sc3ccccc3c(=O)c2C1` [Example 17, 1,2,3,4-tetrahydro-2-n-pentyl-10H-(1)-benzothiopyrano[3,2-c]pyridin-10-one hydrochloride], for which the IC50 in experiment [1] came to 70 nM; on rat cortical α1 receptor, 310 nM; on rat cortical α2 receptor, 70 nM; in experiment [2] it was 39800 nM.
`O=c1c2c(sc3ccccc13)CCN(CC1CCCCC1)C2` [Example 20, 2-cyclohexylmethyl-1,2,3,4-tetrahydro-10H-(1)-benzothiopyrano[3,2-c]pyridin-10-one hydrochloride]: the IC50 in experiment [1] is 10 nM; on rat cortical α1 receptor, 2700 nM; at rat cortical α2 receptor, 230 nM; in experiment [2], above 100000 nM.
As to `O=c1c2c(sc3ccccc13)CCN(C1CCCCC1)C2` [Example 37], the IC50 came out at 160 nM in experiment [1], 1590 nM at rat cortical α1 receptor, 600 nM on rat cortical α2 receptor and 11700 nM in experiment [2].
In the case of `O=c1c2c(sc3ccc4ccccc4c13)CCNC2` [Example 5, 1,2,3,4-tetrahydro-12H-naphtho[1',2':5,6]thiopyrano[3,2-c]pyridin-12-one hydrochloride], the 50% inhibitory concentration (IC50) amounted to 5200 nM in experiment [1], 1700 nM at rat cortical α1 receptor, 1600 nM at rat cortical α2 receptor and 19500 nM in experiment [2].
For `O=c1c2c(sc3ccccc13)CCN(CCC1OCCCO1)C2` [Example 31], the IC50 in experiment [1] came out at 560 nM; at rat cortical α1 receptor, 3400 nM; on rat cortical α2 receptor it was 650 nM; in experiment [2], 74100 nM.

A word on the IC50: it is the concentration at which inhibition is half-maximal.
